Source: publication PMC12521615, “Accurate affinity models for SH2 domains from peptide binding assays and free‐energy regression” (Protein Science : A Publication of the Protein Society, 2025)
Non-standard residues stand in square brackets, D forms with d. Residues, ends and D or L forms follow the SMILES beside them. pY = N[C@@H](Cc1ccc(OP(=O)(O)O)cc1)C(=O)O

What was measured:
Grb2 SH2 domain = Grb2 SH2 domain (Homo sapiens, UniProt P62993); experiment: biochemical
Excerpt: Measured binding constants (K D) from competition mode fluorescence polarization experiments were obtained using the purified SH2 domains used for the selection and chosen sets of peptides with a phosphorylated tyrosine exactly as described previously (Li et al., [2023]). […] (c‐Src SH2 consensus) was used as the probe, and for the Grb2 SH2 domain, the fluorescently labeled peptide FITC‐Ahx‐FDDPS(pY)VNVQN (Ahx = 6‐aminohexanoic acid) from the Y177 phospho‐tyrosine site of BCR. Before performing the competition mode fluorescence polarization measurement, the K D of the probes for the respective SH2 domains was first measured in a direct mode of fluorescence polarization. […] For the set of peptides where single point mutations were compared, phosphopeptides reported in the PhosphoSitePlus database (Hornbeck et al., [2015]) and previously shown to bind to the c‐Src SH2 domain (Li et al., [2023]) were chosen alongside their respective single point mutants. To choose phosphopeptides for validation of the Lyn SH2 domain, we started from all verified phosphopeptides found in PhosphoSitePlus, filtered based on their co‐expression with the Lyn kinase using the STRING database. Using the validation data for the Fyn SH2 domain, the range of predicted relative binding affinities that corresponds to the range between 1 nM and 100 μM, which is the dynamic range of reliable measurement of absolute binding affinities using our competitive fluorescence polarization setup, was defined and used to further filter the set of candidate phosphopeptides. A subset that evenly covers the chosen range of predicted relative affinities was finally picked for the validation measurements of the Lyn SH2 domain. For the c‐Src, Yes, and Blk SH2 domains, a combination of the previously chosen peptides was used, after verifying that their predicted relative affinities for the given SH2 domain fell within the same measurable range. All peptides containing phosphorylated tyrosine, both fluorescently labeled and non‐labeled, were produced by SynPeptide (China).

Lyn SH2 domain = biological target: T1, Lyn SH2 domain (Homo sapiens, UniProt P07948); experiment: competitive fluorescence polarization, Lyn SH2 domain; type: binding; conditions: Table S3, unpaired validation; competition fluorescence polarization; probe FITC-Ahx-GDG-pY-EEISPLLL-NH2 30 nM; [SH2] 106 nM; mean
T1 construct: The human SH2 domains from Fyn (142–248), Lyn (121–228); His6-SUMO (N, cleaved yes); host or cells: Escherichia coli C43(DE3) with BirA helper plasmid
Excerpt: First, we generated bacterial display datasets and affinity models for three additional SH2 domains from Src‐family kinases Lyn, Blk, and Yes (Figure 5a). For validation of the affinity model for Lyn, we selected a subset of phosphopeptides that were likely to fall within the dynamic range of the competitive fluorescence polarization assay (see “Methods” for details). […] We measured binding affinities to the corresponding phosphopeptides by fluorescence polarization.
The human SH2 domains from Fyn (142–248), Lyn (121–228), Blk (116–222), and Yes (150–257) kinases were PCR‐amplified from plasmids encoding the full‐length proteins and cloned using the NEBuilder® HiFi DNA Assembly Master Mix (NEB) in a pET plasmid backbone that was PCR‐amplified with the primers pETXbaI_for and pETXhoI_rev (these and all other primers are defined in Table S7) from the pET‐His6‐SUMO‐Grb2(SH2), as reported before (Li et al., [2023]), thus adding an N‐terminal His6‐SUMO tag and a C‐terminal AviTag® for biotinylation. The SH2 plasmids are available via Addgene: pET28‐His6‐SUMO‐Fyn‐SH2‐AviTag (214202), pET28‐His6‐SUMO‐Blk‐SH2‐AviTag (214204), pET28‐His6‐SUMO‐Lyn‐SH2‐AviTag (214207), pET28‐His6‐SUMO‐Yes‐SH2‐AviTag (214208), and pET28‐His6‐SUMO‐cSrc‐SH2‐AviTag (214230). For expression and parallel biotinylating of the SH2 domain product, Escherichia coli C43(DE3) cells carrying a BirA encoding helper plasmid were transformed with the respective SH2 domain expression construct and plated to grow overnight at 37°C on a streptomycin and kanamycin (100 μg/mL both) LB‐agar plate. The colonies were collected in 10 mL of TB medium and used to inoculate 1 L of TB medium and grown at 37°C and 215 rpm. Upon reaching an OD600 of 0.5, the expression of the SH2 domains was induced by adding IPTG up to 0.5 mM and biotin up to 250 μM, and the expressing culture was incubated at 18°C for 16–18 h. After removing the medium through centrifugation, the cell pellets were snap‐frozen in liquid N2 and stored at −80°C until purification. To purify the biotinylated SH2 domains, the cell pellets were resuspended in lysis buffer (50 mM Tris, pH 7.5, 300 mM NaCl, 20 mM imidazole, 10% glycerol), supplementing them with 2 mM β‐mercaptoethanol and 1× protease inhibitor cocktail before lysis by sonication (Fisherbrand Sonic Dismembrator). The soluble fraction separated after centrifugation at 33,000 g was run on a HisTrap HP column (Cytiva), then washed with 10 CV of the lysis buffer followed by 10 CV of wash buffer (50 mM Tris, pH 7.5, 50 mM NaCl, 10 mM imidazole, 10% glycerol). Next, the protein was eluted with elution buffer (50 mM Tris, pH 7.5, 50 mM NaCl, 250 mM imidazole, 10% glycerol) directly onto a 5 mL HiTrap Q HP anion exchange column (Cytiva). The biotinylated SH2 domain was then eluted from the anion exchange column with an NaCl gradient (50 mM Tris, pH 7.5, 0.05–1 M NaCl, 1 mM TCEP‐HCl), and the His6‐SUMO tag was cleaved using 0.05 mg/mL Ulp1 protease. The biotinylated SH2 domain was then collected in a flowthrough after running the cleavage reaction over a HisTrap HP column. Finally, the biotinylated SH2 domain in the flowthrough was run on a HiLoad 16/600 Superdex 75 pg size exclusion column (Cytiva) in storage buffer (20 mM HEPES, pH 7.5, 150 mM NaCl, 10% glycerol).

c-Src SH2 domain = biological target: T2, c-Src SH2 domain (Homo sapiens, UniProt P12931); experiment: competitive fluorescence polarization, c-Src SH2 domain; type: binding; conditions: Table S3, unpaired validation; competition fluorescence polarization; probe FITC-Ahx-GDG-pY-EEISPLLL-NH2 30 nM; [SH2] 123-126 nM; mean
T2 construct: the SH2 domain from c‐Src kinase; His6-SUMO (N, cleaved yes); host or cells: Escherichia coli C43(DE3) with BirA helper plasmid
T2 sequence (P12931 151-248 limits assumed): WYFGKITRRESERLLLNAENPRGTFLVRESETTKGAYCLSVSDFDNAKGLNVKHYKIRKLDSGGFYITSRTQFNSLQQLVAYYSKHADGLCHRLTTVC
Excerpt: Measured binding constants (K D) from competition mode fluorescence polarization experiments were obtained using the purified SH2 domains used for the selection and chosen sets of peptides with a phosphorylated tyrosine exactly as described previously (Li et al., [2023]). […] Before performing the competition mode fluorescence polarization measurement, the K D of the probes for the respective SH2 domains was first measured in a direct mode of fluorescence polarization. […] Using the validation data for the Fyn SH2 domain, the range of predicted relative binding affinities that corresponds to the range between 1 nM and 100 μM, which is the dynamic range of reliable measurement of absolute binding affinities using our competitive fluorescence polarization setup, was defined and used to further filter the set of candidate phosphopeptides. A subset that evenly covers the chosen range of predicted relative affinities was finally picked for the validation measurements of the Lyn SH2 domain.

Sequence of Grb2 SH2 domain (P62993 60-152 limits assumed): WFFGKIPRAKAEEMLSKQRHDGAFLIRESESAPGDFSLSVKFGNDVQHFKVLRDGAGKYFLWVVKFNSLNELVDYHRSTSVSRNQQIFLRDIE
T1 sequence (P07948 121-228): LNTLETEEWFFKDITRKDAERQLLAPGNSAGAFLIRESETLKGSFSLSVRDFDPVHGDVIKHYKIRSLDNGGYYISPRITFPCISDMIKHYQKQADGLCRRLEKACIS

| Compound | Kd (Grb2 SH2 domain) | Kd (Lyn SH2 domain) | Kd (c-Src SH2 domain) |
| --- | --- | --- | --- |
| CC(=O)N[C@@H](CCC(N)=O)C(=O)N[C@@H](Cc1c[nH]cn1)C(=O)N[C@@H](CCCNC(=N)N)C(=O)N[C@@H](CC(C)C)C(=O)N[C@@H](CC(N)=O)C(=O)N[C@@H](CC(N)=O)C(=O)N[C@@H](Cc1ccc(OP(=O)(O)O)cc1)C(=O)N[C@@H](CCC(=O)O)C(=O)N[C@@H](CC(N)=O)C(=O)N[C@@H](CC(N)=O)C(=O)N[C@@H](CCCNC(=N)N)C(=O)N[C@@H](CC(C)C)C(=O)NCC(N)=O [Syn-G2-6] (Ac-QHRLNN[pY]ENNRLG-NH2) | 2250 nM | – | – |
| CC[C@H](C)[C@H](NC(=O)[C@H](CC(N)=O)NC(=O)[C@H](Cc1c[nH]cn1)NC(=O)[C@H](Cc1ccc(OP(=O)(O)O)cc1)NC(=O)[C@H](CCCNC(=N)N)NC(=O)[C@H](CCC(N)=O)NC(=O)[C@H](Cc1c[nH]cn1)NC(=O)CNC(=O)[C@H](CC(C)C)NC(=O)[C@H](CCC(N)=O)NC(C)=O)C(=O)N[C@H](C(=O)N1CCC[C@H]1C(=O)NCC(N)=O)[C@@H](C)O [Syn-G2-5] (Ac-QLGHQR[pY]HNITPG-NH2) | 487 nM | – | – |
| CC[C@H](C)[C@H](NC(=O)[C@H](CCC(N)=O)NC(C)=O)C(=O)N[C@@H](CCC(=O)O)C(=O)N[C@H](C(=O)NCC(=O)N[C@H](C(=O)N[C@@H](Cc1ccc(OP(=O)(O)O)cc1)C(=O)N[C@@H](CCC(N)=O)C(=O)N[C@@H](CC(N)=O)C(=O)N1CCC[C@H]1C(=O)N[C@@H](Cc1c[nH]cn1)C(=O)N[C@@H](CC(N)=O)C(=O)NCC(N)=O)[C@@H](C)O)C(C)C [Syn-G2-7] (Ac-QIEVGT[pY]QNPHNG-NH2) | 3240 nM | – | – |
| CC[C@H](C)[C@H](NC(=O)[C@H](CC(N)=O)NC(=O)[C@H](Cc1c[nH]cn1)NC(=O)[C@H](CCC(N)=O)NC(C)=O)C(=O)N[C@@H](Cc1c[nH]cn1)C(=O)N[C@@H](CO)C(=O)N[C@@H](Cc1ccc(OP(=O)(O)O)cc1)C(=O)N[C@H](C(=O)N[C@@H](CC(N)=O)C(=O)N[C@H](C(=O)N1CCC[C@H]1C(=O)N1CCC[C@H]1C(=O)NCC(N)=O)[C@@H](C)CC)[C@@H](C)CC [Syn-G2-2] (Ac-QHNIHS[pY]INIPPG-NH2) | 3.99 nM | – | – |
| CC[C@H](C)[C@H](NC(=O)[C@H](CC(=O)O)NC(=O)[C@H](CCC(N)=O)NC(C)=O)C(=O)N[C@@H](CC(N)=O)C(=O)N[C@@H](CO)C(=O)N[C@@H](CC(C)C)C(=O)N[C@@H](Cc1ccc(OP(=O)(O)O)cc1)C(=O)N[C@@H](CC(=O)O)C(=O)N[C@H](C(=O)N[C@@H](CO)C(=O)N[C@@H](CCCNC(=N)N)C(=O)N[C@@H](CCSC)C(=O)NCC(N)=O)C(C)C [PLCG2 pY 753] (Ac-QDINSL[pY]DVSRMG-NH2) | – | 11700 nM | 12300 nM |
| CC(=O)N[C@@H](CCC(N)=O)C(=O)N[C@@H](CC(=O)O)C(=O)N[C@@H](CC(=O)O)C(=O)N[C@@H](CCC(N)=O)C(=O)N[C@@H](CCC(=O)O)C(=O)N[C@H](C(=O)N[C@@H](Cc1ccc(OP(=O)(O)O)cc1)C(=O)N[C@@H](CC(=O)O)C(=O)N[C@@H](CC(=O)O)C(=O)N[C@H](C(=O)N[C@@H](C)C(=O)N[C@@H](CCC(=O)O)C(=O)NCC(N)=O)C(C)C)C(C)C [SLAP-130 pY595] (Ac-QDDQEV[pY]DDVAEG-NH2) | – | 240 nM | 191 nM |
| CC(=O)N[C@@H](CCC(N)=O)C(=O)N[C@@H](CCCCN)C(=O)N[C@@H](CCC(=O)O)C(=O)N[C@@H](C)C(=O)N[C@@H](Cc1c[nH]cn1)C(=O)N[C@@H](Cc1c[nH]cn1)C(=O)N[C@@H](Cc1ccc(OP(=O)(O)O)cc1)C(=O)N[C@H](C(=O)N[C@@H](CC(N)=O)C(=O)N[C@@H](Cc1c[nH]c2ccccc12)C(=O)N[C@@H](CCCNC(=N)N)C(=O)N[C@H](C(=O)NCC(N)=O)[C@@H](C)O)C(C)C [Syn-G2-1] (Ac-QKEAHH[pY]VNWRTG-NH2) | 31.8 nM | – | 9660 nM |
